# Patent US20250019385A1, “SPIROCYCLIC ANNULATED 2-AMINO-3-CYANO THIOPHENES AND DERIVATIVES FOR THE TREATMENT OF CANCER” (Boehringer Ingelheim International GmbH, priority 2023, published 2025)
# Experiments:
# Ba/F3 cells KRAS G12D = experiment: Ba/F3 proliferation assay (KRAS G12D); type: cell-based; details: Mus musculus, BaF3, 72 h, AlamarBlue viability
# Experimental: Ba/F3 cells are ordered from DSMZ (ACC300, Lot17) and grown in RPMI-1640 (ATCC 30-2001)+10% FCS+10 ng/mL IL-3 at 37° C. in 5% […] atmosphere. Plasmids containing KRASG12 mutants (i.e. […], G12C, G12V) are obtained from GeneScript. To generate KRASG12-dependent Ba/F3 models, Ba/F3 cells are transduced with retroviruses containing vectors that harbor KRASG12 isoforms. Platinum-E cells (Cell Biolabs) are used for retrovirus packaging. Retrovirus is added to Ba/F3 cells. To ensure infection, 4 μg/mL polybrene is added and cells are spinfected. Infection efficiency is confirmed by measuring GFP-positive cells using a cell analyzer. Cells with an infection efficiency of 10% to 20% are further cultivated and puromycin selection with 1 μg/mL is initiated. As a control, parental Ba/F3 cells are used to show selection status. Selection is considered successful when parental Ba/F3 cells cultures died. To evaluate the transforming potential of KRASG12 mutations, the growth medium is no longer supplemented with IL-3. Ba/F3 cells harboring the empty vector are used as a control. Approximately ten days before conducting the experiments, puromycin is left out.
# For proliferation assays, Ba/F3 cells are seeded into 384-well plates at 1.5×1 (M cells/60 μL in growth media (RPMI-1640+10% FCS). Compounds (10 mM stock in DMSO) are added at logarithmic dose series using the ECHO acoustic liquid handler system (Beckman Coulter), normalizing for added DMSO and including DMSO controls. All compound treatments are performed in technical duplicates. For the TO time point measurement, untreated cells are analyzed at the time of compound addition. Treated cells are incubated for 72 h at 37° C. with 5% CO2 and cell viability is measured in the PerkinElmer Envision Multimode Reader using AlamarBlue™ (ThermoFisher) viability stain. Viability (stated as percent of control) is defined as relative fluorescence units RFU of each well divided by the RFU of cells in DMSO controls. IC50 values are determined from viability measurements by non-linear regression using a four-parameter model.
# [1] = target: KRAS (G12C)::SOS1 protein-protein interaction (Homo sapiens (Human), UniProt P01116, C118S/C51S/C80L/G12C); experiment: KRAS::SOS1 AlphaScreen binding assay (KRAS G12C); details: GDP
# Excerpt: This assay can be used to examine the potency with which compounds according to the invention binding to (mutated) KRAS inhibit the protein-protein interaction between SOS1 and (mutated) KRAS e.g. KRAS G12C, KRAS G12D. […] Low IC50 values in this assay setting are indicative of strong inhibition of protein-protein interaction between SOS1 and KRAS:
# These assays measure the inhibitory effect of compounds on KRAS mutant protein-protein interactions using the Alpha Screen technology by Perkin Elmer.
# The following (mutant) enzyme forms of KRAS and interacting proteins are used in these assays at the given concentrations:
# KRAS (G12C) 1-169, N-terminal 6His-tag for purification, cleaved off, C-terminal avi-tag, biotinylated, mutations: C51S, C80L, C118S (in house); final assay concentration 7.5 nM and SOS1 564-1049, N-terminal 229 GST-tag, TEV cleavage site (Viva Biotech Ltd); final assay concentration 5 nM;
# Test compounds dissolved in DMSO are dispensed onto assay plates (Proxiplate 384 PLUS, white, PerkinElmer; 6008289) using an Access Labcyte Workstation with the Labcyte Echo 55x. For the chosen highest assay concentration of 100 μM, 150 nL of compound solution are transferred from a 10 mM DMSO compound stock solution. A series of eleven fivefold dilutions per compound are transferred to the assay plate, compound dilutions are tested in duplicates. DMSO are added as backfill to a total volume of 150 nL.
# The assays run on a fully automated robotic system in a darkened room below 100 Lux. To 150 nl of compound dilution 10 μl of a mix including KRAS mutant protein, SOS1 (final assay concentrations see above) and GDP nucleotide (Sigma G7127; final assay concentration 10 μM) in assay buffer (1×PBS, 0.1% BSA, 0.05% Tween 20) are added into columns 1-24.
# After 30 minutes incubation time 5 μl of Alpha Screen bead mix in assay buffer are added into columns 1-23. Bead mix consists of AlphaLISA Glutathione Acceptor Beads (PerkinElmer, Cat No AL109) and AlphaScreen Streptavidin Donor Beads (PerkinElmer Cat No 6760002) in assay buffer at a final assay concentration of 10 μg/mL each.
# Plates are kept at room temperature in a darkened incubator. After an additional 60 minutes incubation time the signal is measured in a PerkinElmer Envision HTS Multilabel Reader using the AlphaScreen specs from PerkinElmer.
# Each plate contains up to 16 wells of a negative control depending on the dilution procedure (platewise or serial) (DMSO instead of test compound; with KRAS mutant::SOS1 GOP mix and bead mix; column 23) and 16 wells of a positive control (DMSO instead of test compound; with KRAS mutant::SOS1 GOP mix w/o bead mix; column 24).
# As internal control known inhibitors of KRAS mutant::SOS1 interaction can be measured on each compound plate.
# IC50 values are calculated and analyzed with Boehringer Ingelheim's MEGALAB C50 application using a 4 parametric logistic model.
# Tables of example compounds disclosed herein contain IC50 values determined using the above assays (see Table 43).
# [2] = Plasma protein binding assay (PPB), equilibrium dialysis; type: in vitro ADME; details: bovine, 10% FCS in PBS, read-out: PPB 10% FCS (% fu)
# Experimental: Binding of test compounds to plasma was determined using equilibrium dialysis (ED) and quantitative mass spectrometry interfaced with liquid chromatography (LC-MS). In brief, ED was performed with dialysis devices consisting of two chambers separated by a semipermeable membrane with a molecular weight cut-off of 5-10 kg/mol. One chamber was filled with 10% FCS in PBS containing 1-10 μmol/L test compound and the other chamber was filled with phosphate-buffer saline (PBS) with or without dextran. The dialysis chamber was incubated for 3-5 hours at 37° C. After incubation, protein was precipitated from aliquots of each chamber and the concentration of test compound in the supernatant of the plasma-containing compartment (cserum) and of the buffer-containing compartment (cbuffer) was determined by LC-MS. The fraction of unbound test compound (not bound to plasma) (f) was calculated according to the following equation: […]
# Chain of KRAS (G12C)::SOS1 protein-protein interaction (P01116 other isoform, or with tags, fused parts or gaps G12C/C51S/C80L/C118S): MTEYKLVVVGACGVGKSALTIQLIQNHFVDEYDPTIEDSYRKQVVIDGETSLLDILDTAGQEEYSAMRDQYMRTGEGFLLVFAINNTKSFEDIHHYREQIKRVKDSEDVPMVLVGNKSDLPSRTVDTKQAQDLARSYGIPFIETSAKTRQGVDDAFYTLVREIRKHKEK
SMILES,IC50 (Ba/F3 cells KRAS G12D) [nM],IC50 [1] [nM],fraction unbound [2]
COCCn1c(=O)n([C@@H]2CCOC2)c2nc(-c3onc4c3CCC[C@@]43CCCc4sc(N)c(C#N)c43)nc(O[C@@H](C)[C@@H]3CCCN3C)c21 [I-1],36,2,0.34
CO[C@H]1C[C@@H]([C@H](C)Oc2nc(-c3onc4c3CCC[C@@]43CCCc4sc(N)c(C#N)c43)nc3c2n(C)c(=O)n3[C@@H]2CCOC2)N(C)C1 [I-2],90,1,0.15
CO[C@@H]1C[C@@H]([C@H](C)Oc2nc(-c3onc4c3CCC[C@@]43CCCc4sc(N)c(C#N)c43)nc3c2n(C)c(=O)n3[C@@H]2CCOC2)N(C)C1 [I-3],14,1,0.11
C[C@H](Oc1nc(-c2onc3c2CCC[C@@]32CCCc3sc(N)c(C#N)c32)nc2c1n(C)c(=O)n2[C@@H]1CCOC1)[C@@H]1[C@H](F)CCN1C [I-4],145,2,0.13
C[C@H](Oc1nc(-c2onc3c2CCC[C@@]32CCCc3sc(N)c(C#N)c32)nc2c1n(C)c(=O)n2[C@@H]1CCOC1)[C@@H]1[C@@H](F)CCN1C [I-5],68,1,0.03
CO[C@H]1CCN(C)[C@@H]1[C@H](C)Oc1nc(-c2onc3c2CCC[C@@]32CCCc3sc(N)c(C#N)c32)nc2c1n(C)c(=O)n2[C@@H]1CCCOC1 [I-6],9,2,0.17
COCCn1c(=O)n(C)c2c(O[C@@H](C)[C@@H]3CCCN3C)nc(-c3onc4c3CCC[C@@]43CCCc4sc(N)c(C#N)c43)nc21 [I-7],204,3,0.24
C[C@H](Oc1nc(-c2onc3c2CCC[C@@]32CCCc3sc(N)c(C#N)c32)nc2c1[nH]c(=O)n2[C@@H]1CCOC1)[C@@H]1CCCN1C [I-8],107,1,0.4
C[C@H](Oc1nc(-c2onc3c2CCC[C@@]32CCCc3sc(N)c(C#N)c32)nc2c1n(C)c(=O)n2[C@H]1CCOC1)[C@@H]1CCCN1C [I-9],46,2,0.25
C[C@H](Oc1nc(-c2onc3c2CCC[C@@]32CCCc3sc(N)c(C#N)c32)nc2c1n(C)c(=O)n2C1CCOCC1)[C@@H]1CCCN1C [I-10],118,2,0.24
C[C@H](Oc1nc(-c2onc3c2CCC[C@@]32CCCc3sc(N)c(C#N)c32)nc2c1n(C)c(=O)n2[C@@]12COC[C@@H]1C2)[C@@H]1CC[C@H](C)N1C [I-45],6,–,0.2
CO[C@@H]1C[C@@H]([C@H](C)Oc2nc(-c3onc4c3CCC[C@@]43CCCc4sc(N)c(C#N)c43)nc3c2n(C)c(=O)n3[C@@]23COC[C@@H]2C3)N(C)C1 [I-46],15,–,0.32
C[C@H](Oc1nc(-c2onc3c2CCC[C@@]32CCCc3sc(N)c(C#N)c32)nc2c1n(C)c(=O)n2[C@H]1CO[C@@H](C)C1)[C@@H]1CCCN1C [I-47],1,–,0.13
C[C@H](Oc1nc(-c2onc3c2CCC[C@@]32CCCc3sc(N)c(C#N)c32)nc2c1n(C)c(=O)n2[C@H]1CO[C@@H](C)C1)[C@@H]1CC[C@H](C)N1C [I-50],4,–,0.09
CO[C@H]1CCN(C)[C@@H]1[C@H](C)Oc1nc(-c2onc3c2CCC[C@@]32CCCc3sc(N)c(C#N)c32)nc2c1n(C)c(=O)n2[C@H]1COC[C@@H](C)C1 [I-51],26,–,0.07
CO[C@@H]1C[C@@H]([C@H](C)Oc2nc(-c3onc4c3CCC[C@@]43CCCc4sc(N)c(C#N)c43)nc3c2n(C)c(=O)n3[C@H]2COC[C@@H](C)C2)N(C)C1 [I-52],28,–,0.06
C[C@H](Oc1nc(-c2onc3c2CCC[C@@]32CCCc3sc(N)c(C#N)c32)nc2c1CN(C1COC1)C[C@]21CCOC1)[C@@H]1CC[C@H](C)N1C [I-55],10,–,0.2
C[C@H](Oc1nc(-c2onc3c2CCC[C@@]32CCCc3sc(N)c(C#N)c32)nc2c1CN(C1COC1)C[C@]21CCOC1)[C@@H]1CCCN1C [I-56],13,–,0.3
CO[C@H]1CCN(C)[C@@H]1[C@H](C)Oc1nc(-c2onc3c2CCC[C@@]32CCCc3sc(N)c(C#N)c32)nc2c1CN(C1COC1)C[C@]21CCOC1 [I-57],11,–,0.28
CO[C@@H]1C[C@@H]([C@H](C)Oc2nc(-c3onc4c3CCC[C@@]43CCCc4sc(N)c(C#N)c43)nc3c2CN(C2COC2)C[C@]32CCOC2)N(C)C1 [I-58],22,–,0.24

# Next, values leading:
IC50 (Ba/F3 cells KRAS G12D) [nM],IC50 [1] [nM],fraction unbound [2],SMILES
2,–,–,C[C@H](Oc1nc(-c2noc3c2CCC[C@@]32CCCc3sc(N)c(C#N)c32)nc2c1n(C)c(=O)n2[C@H]1CO[C@@H](C)C1)[C@@H]1CCCN1C [II-5]
11,–,0.07,CO[C@@H]1C[C@@H]([C@H](C)Oc2nc(-c3noc4c3CCC[C@@]43CCCc4sc(N)c(C#N)c43)nc3c2n(C)c(=O)n3[C@@]23COC[C@@H]2C3)N(C)C1 [II-6]
8,–,0.19,C[C@H](Oc1nc(-c2noc3c2CCC[C@@]32CCCc3sc(N)c(C#N)c32)nc2c1CN(C1COC1)C[C@]21CCOC1)[C@@H]1CCCN1C [II-12]
7,–,0.09,CO[C@H]1CCN(C)[C@@H]1[C@H](C)Oc1nc(-c2noc3c2CCC[C@@]32CCCc3sc(N)c(C#N)c32)nc2c1CN(C1COC1)C[C@]21CCOC1 [II-13]
11,–,0.12,CO[C@@H]1C[C@@H]([C@H](C)Oc2nc(-c3noc4c3CCC[C@@]43CCCc4sc(N)c(C#N)c43)nc3c2CN(C2COC2)C[C@]32CCOC2)N(C)C1 [II-14]
3,–,–,C[C@H](Oc1nc(-c2noc3c2CCC[C@@]32SCCc3sc(N)c(C#N)c32)nc2c1COC[C@]21CCOC1)[C@@H]1CCCN1C [II-16]
6,–,0.1,C[C@H](Oc1nc(-c2noc3c2CCC[C@@]32CCCc3sc(N)c(C#N)c32)nc2c1CN(C1COC1)C[C@]21CCOC1)[C@@H]1CC[C@H](C)N1C [II-17]
